US9636418B2 (priority 2013, dated 2017)
Like-named read-outs stand apart in the source and are kept apart here.

Key:
Assay in all cases: cell-based
hNav1.7 [1] = molecular target: T1, hNav1.7 (Homo sapiens, UniProt Q15858); conditions: IonWorks Quattro; read-out: IC50 Nav1.7
hNav1.4 [2] = molecular target: T2, hNav1.4 (Homo sapiens, UniProt P35499); conditions: ratio of IonWorks Quattro IC50 values
hNav1.4 [3] = molecular target: T2, hNav1.4; conditions: for IC50: PatchXpress, read-out: PX hNav1.4 Tonic IC50
hNav1.5 = hNav1.5 (Homo sapiens, UniProt Q14524); conditions: PatchXpress, read-out: PX hNav1.5 Tonic IC50
hNav1.7 [4] = molecular target: T1, hNav1.7; assay type: cell-based; conditions: PatchXpress, read-out: PX hNav1.7 Tonic IC50
[5] = * = at high concentrations compound would wash off slowly or not at all

Sequence of hNav1.5 (Q14524 whole entry): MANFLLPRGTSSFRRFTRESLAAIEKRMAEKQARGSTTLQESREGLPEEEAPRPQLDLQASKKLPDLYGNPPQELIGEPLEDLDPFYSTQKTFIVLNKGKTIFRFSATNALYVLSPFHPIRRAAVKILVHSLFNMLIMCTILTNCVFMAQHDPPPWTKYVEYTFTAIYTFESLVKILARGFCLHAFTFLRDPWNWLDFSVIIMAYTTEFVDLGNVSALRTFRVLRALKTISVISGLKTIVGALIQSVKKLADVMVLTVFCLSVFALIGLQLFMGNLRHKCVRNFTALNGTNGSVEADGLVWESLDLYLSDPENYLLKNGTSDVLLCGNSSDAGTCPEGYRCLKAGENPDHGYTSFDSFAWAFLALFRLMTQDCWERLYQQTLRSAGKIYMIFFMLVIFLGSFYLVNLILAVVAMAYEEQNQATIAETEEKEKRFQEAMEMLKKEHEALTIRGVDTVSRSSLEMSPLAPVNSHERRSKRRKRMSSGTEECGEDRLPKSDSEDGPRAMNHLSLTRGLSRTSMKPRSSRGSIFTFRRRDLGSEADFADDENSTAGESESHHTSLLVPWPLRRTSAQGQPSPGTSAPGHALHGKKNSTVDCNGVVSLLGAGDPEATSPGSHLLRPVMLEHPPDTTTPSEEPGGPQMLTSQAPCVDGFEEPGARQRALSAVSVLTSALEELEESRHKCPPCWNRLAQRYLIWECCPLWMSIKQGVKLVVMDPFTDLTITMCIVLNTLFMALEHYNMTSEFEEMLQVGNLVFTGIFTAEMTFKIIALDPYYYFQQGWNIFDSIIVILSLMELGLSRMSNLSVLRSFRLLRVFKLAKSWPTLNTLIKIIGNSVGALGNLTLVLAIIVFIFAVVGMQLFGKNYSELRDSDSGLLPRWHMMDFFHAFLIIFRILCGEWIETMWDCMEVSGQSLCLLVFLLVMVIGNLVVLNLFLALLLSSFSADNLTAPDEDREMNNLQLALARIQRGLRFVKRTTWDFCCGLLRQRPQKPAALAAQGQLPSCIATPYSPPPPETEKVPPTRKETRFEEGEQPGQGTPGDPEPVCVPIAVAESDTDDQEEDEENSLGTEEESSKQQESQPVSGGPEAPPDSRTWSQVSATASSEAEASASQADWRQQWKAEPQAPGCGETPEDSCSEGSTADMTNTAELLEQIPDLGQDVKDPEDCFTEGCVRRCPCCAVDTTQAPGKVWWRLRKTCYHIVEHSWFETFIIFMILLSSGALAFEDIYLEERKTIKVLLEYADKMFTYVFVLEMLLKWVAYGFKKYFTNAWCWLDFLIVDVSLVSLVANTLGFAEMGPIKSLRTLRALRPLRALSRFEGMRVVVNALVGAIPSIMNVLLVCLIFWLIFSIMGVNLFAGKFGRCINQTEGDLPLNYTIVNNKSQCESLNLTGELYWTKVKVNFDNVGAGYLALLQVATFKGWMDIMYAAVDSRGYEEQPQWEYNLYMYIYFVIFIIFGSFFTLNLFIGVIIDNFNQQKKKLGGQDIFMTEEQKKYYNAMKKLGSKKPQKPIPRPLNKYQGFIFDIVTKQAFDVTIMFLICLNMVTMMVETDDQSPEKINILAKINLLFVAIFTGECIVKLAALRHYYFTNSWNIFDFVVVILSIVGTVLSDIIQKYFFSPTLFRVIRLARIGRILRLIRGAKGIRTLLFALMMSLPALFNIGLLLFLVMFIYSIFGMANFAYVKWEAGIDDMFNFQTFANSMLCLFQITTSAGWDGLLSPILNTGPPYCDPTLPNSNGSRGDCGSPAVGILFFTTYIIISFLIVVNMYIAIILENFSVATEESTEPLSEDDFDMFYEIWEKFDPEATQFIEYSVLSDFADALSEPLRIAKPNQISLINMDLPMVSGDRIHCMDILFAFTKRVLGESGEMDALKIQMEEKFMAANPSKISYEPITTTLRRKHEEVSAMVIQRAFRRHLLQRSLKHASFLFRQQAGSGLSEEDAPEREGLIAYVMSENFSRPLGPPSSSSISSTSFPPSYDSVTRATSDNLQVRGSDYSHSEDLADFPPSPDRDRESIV
T1 sequence (Q15858 whole entry): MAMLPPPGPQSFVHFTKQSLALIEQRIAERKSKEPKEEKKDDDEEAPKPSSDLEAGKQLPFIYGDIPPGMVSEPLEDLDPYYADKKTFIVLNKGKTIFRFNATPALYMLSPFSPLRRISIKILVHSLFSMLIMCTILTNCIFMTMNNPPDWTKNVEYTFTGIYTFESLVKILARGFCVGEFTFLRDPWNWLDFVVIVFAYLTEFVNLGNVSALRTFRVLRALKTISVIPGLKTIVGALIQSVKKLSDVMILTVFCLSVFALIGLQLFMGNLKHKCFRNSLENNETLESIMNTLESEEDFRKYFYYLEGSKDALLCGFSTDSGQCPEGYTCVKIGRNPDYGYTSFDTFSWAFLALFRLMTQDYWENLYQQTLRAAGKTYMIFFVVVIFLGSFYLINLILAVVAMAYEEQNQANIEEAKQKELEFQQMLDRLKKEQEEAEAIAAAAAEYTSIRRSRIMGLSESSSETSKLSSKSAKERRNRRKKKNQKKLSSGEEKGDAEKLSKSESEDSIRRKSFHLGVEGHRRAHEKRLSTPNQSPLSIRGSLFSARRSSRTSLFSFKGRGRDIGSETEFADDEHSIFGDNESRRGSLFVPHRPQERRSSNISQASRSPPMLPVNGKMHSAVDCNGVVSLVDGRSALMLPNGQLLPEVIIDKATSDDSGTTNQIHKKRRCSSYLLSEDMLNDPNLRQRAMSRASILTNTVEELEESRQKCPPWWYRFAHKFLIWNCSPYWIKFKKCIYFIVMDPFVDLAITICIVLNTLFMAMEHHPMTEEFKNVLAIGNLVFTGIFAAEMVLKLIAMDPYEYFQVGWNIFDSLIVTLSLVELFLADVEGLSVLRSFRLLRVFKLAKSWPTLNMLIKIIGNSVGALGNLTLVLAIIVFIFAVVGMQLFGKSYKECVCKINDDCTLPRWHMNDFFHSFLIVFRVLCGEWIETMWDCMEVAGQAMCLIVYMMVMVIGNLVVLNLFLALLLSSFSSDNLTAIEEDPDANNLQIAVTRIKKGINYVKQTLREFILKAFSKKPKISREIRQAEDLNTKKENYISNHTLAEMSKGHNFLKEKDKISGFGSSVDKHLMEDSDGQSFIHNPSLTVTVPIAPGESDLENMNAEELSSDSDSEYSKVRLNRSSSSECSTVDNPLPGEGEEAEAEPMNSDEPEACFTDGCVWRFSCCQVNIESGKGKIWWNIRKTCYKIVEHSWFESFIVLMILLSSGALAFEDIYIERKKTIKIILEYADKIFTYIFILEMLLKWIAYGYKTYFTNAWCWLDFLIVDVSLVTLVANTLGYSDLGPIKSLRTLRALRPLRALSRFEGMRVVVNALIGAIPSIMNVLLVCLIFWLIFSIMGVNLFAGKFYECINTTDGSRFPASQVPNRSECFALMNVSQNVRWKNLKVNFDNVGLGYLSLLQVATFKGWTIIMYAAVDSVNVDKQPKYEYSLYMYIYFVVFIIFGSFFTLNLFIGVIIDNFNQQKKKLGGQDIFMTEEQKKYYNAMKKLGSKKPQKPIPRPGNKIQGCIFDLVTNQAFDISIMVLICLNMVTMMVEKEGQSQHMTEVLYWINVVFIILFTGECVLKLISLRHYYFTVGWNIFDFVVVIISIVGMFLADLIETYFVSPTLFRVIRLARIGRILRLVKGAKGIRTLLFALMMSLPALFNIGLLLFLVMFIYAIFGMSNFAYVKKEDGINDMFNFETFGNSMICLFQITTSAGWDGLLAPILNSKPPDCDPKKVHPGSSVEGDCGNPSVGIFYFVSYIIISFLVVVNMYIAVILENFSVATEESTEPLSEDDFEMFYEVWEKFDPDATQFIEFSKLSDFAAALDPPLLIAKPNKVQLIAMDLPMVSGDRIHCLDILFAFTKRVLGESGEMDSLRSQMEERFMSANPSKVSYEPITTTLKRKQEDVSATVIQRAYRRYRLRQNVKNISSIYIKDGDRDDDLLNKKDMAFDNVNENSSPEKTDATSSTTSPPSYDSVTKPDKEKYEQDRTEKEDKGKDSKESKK

C#CC[C@H](N)C(=O)N[C@@H](Cc1ccc(O)cc1)C(=O)N[C@H]1CSSC[C@@H]2NC(=O)[C@@H]3CSSC[C@@H](C(=O)N[C@@H](CCCNC(=N)N)C(=O)N[C@@H](CCCCN)C(=O)N[C@H](C(=O)N[C@@H](Cc4c[nH]c5ccccc45)C(N)=O)[C@@H](C)CC)NC(=O)[C@H](Cc4c[nH]c5ccccc45)NC(=O)[C@H](CC(C)C)NC(=O)[C@H](CCCCN)NC(=O)[C@H](CSSC[C@H](NC(=O)[C@H]([C@@H](C)O)NC(=O)[C@H](Cc4c[nH]c5ccccc45)NC(=O)[C@H](CCSC)NC(=O)[C@H](Cc4c[nH]c5ccccc45)NC(=O)[C@H](CCCCN)NC(=O)[C@H](CCC(N)=O)NC1=O)C(=O)N[C@@H](CC(=O)O)C(=O)N[C@@H](CO)C(=O)N[C@@H](CCCCN)C(=O)N[C@@H](CCCNC(=N)N)C(=O)N[C@@H](C)C(=O)N3)NC(=O)[C@H](CCC(=O)O)NC(=O)[C@H](CC(C)C)NC(=O)CNC(=O)[C@H](CCC(=O)O)NC2=O [compound 295]
IC50 (hNav1.7 [1]): 0.018 µM

CC[C@H](C)[C@H](NC(=O)[C@H](CCCCN)NC(=O)[C@H](CCCNC(=N)N)NC(=O)[C@@H]1CSSC[C@@H]2NC(=O)[C@H](C)NC(=O)[C@H](CCCNC(=N)N)NC(=O)[C@H](CCCCN)NC(=O)[C@H](CO)NC(=O)[C@H](CC(=O)O)NC(=O)[C@@H]3CSSC[C@H](NC(=O)[C@H](CCC(=O)O)NC(=O)[C@H](CC(C)C)NC(=O)CNC(=O)[C@H](CCC(=O)O)NC(=O)[C@H](CSSC[C@H](NC(=O)[C@@H](N)Cc4ccc(O)cc4)C(=O)N[C@@H](CCC(N)=O)C(=O)N[C@@H](CCCCN)C(=O)N[C@@H](Cc4c[nH]c5ccccc45)C(=O)N[C@@H](CCSC)C(=O)N[C@@H](Cc4c[nH]c5ccccc45)C(=O)N[C@@H]([C@@H](C)O)C(=O)N3)NC2=O)C(=O)N[C@@H](CCCCN)C(=O)N[C@@H](CC(C)C)C(=O)N[C@@H](Cc2c[nH]c3ccccc23)C(=O)N1)C(=O)N[C@@H](Cc1cn(CCCOCCOCCOCCOCCOCCOCCOCCOCCOCCOCCN)nn1)C(N)=O [compound 188]
IC50 (hNav1.7 [1]): ≥ 5 µM
Nav1.4/Nav1.7 (hNav1.4 [2]): 1

C#CC[C@H](N)C(=O)N[C@@H](Cc1ccc(O)cc1)C(=O)N[C@H]1CSSC[C@@H]2NC(=O)[C@@H]3CSSC[C@@H](C(=O)N[C@@H](CCCNC(=N)N)C(=O)N[C@@H](CCCCN)C(=O)N[C@H](C(=O)N[C@@H](Cc4c[nH]c5ccccc45)C(N)=O)[C@@H](C)CC)NC(=O)[C@H](Cc4c[nH]c5ccccc45)NC(=O)[C@H](CC(C)C)NC(=O)[C@H](CCCCN)NC(=O)[C@H](CSSC[C@H](NC(=O)[C@H]([C@@H](C)O)NC(=O)[C@H](Cc4c[nH]c5ccccc45)NC(=O)[C@H](CCCC)NC(=O)[C@H](Cc4c[nH]c5ccccc45)NC(=O)[C@H](CCCCN)NC(=O)[C@H](CCC(N)=O)NC1=O)C(=O)N[C@@H](CC(=O)O)C(=O)N[C@@H](CO)C(=O)N[C@@H](CCCCN)C(=O)N[C@@H](CCCNC(=N)N)C(=O)N[C@@H](C)C(=O)N3)NC(=O)[C@H](CCCNC(=N)N)NC(=O)[C@H](CC(C)C)NC(=O)CNC(=O)[C@H](CCC(=O)O)NC2=O [compound 296]
IC50 (hNav1.7 [1]): 0.019 µM

CCCC[C@@H]1NC(=O)[C@H](Cc2c[nH]c3ccccc23)NC(=O)[C@H](CCCCN)NC(=O)[C@H](CCC(N)=O)NC(=O)[C@@H](NC(=O)[C@@H](N)Cc2ccc(O)cc2)CSSC[C@@H]2NC(=O)[C@@H]3CSSC[C@@H](C(=O)N[C@@H](CCCNC(=N)N)C(=O)N[C@@H](CCCCN)C(=O)N[C@@H](Cc4ccc(O)cc4)C(=O)N[C@H](C(N)=O)[C@@H](C)CC)NC(=O)[C@H](Cc4c[nH]c5ccccc45)NC(=O)[C@H](CC(C)C)NC(=O)[C@H](CCCCN)NC(=O)[C@H](CSSC[C@H](NC(=O)[C@H]([C@@H](C)O)NC(=O)[C@H](Cc4c[nH]c5ccccc45)NC1=O)C(=O)N[C@@H](CC(=O)O)C(=O)N[C@@H](CO)C(=O)N[C@@H](CCCCN)C(=O)N[C@@H](CCCNC(=N)N)C(=O)N[C@@H](C)C(=O)N3)NC(=O)[C@H](CCC(=O)O)NC(=O)[C@H](CC(C)C)NC(=O)CNC(=O)[C@H](CCCCN=[N+]=[N-])NC2=O [compound 322]
IC50 (hNav1.7 [1]): 0.067 µM

CCCC[C@@H]1NC(=O)[C@H](Cc2c[nH]c3ccccc23)NC(=O)[C@H](CCCCN)NC(=O)[C@H](CCC(N)=O)NC(=O)[C@@H](NC(=O)[C@@H](N)Cc2ccc(O)cc2)CSSC[C@@H]2NC(=O)[C@@H]3CSSC[C@@H](C(=O)N[C@@H](CCCNC(=N)N)C(=O)N[C@@H](CCCCN)C(=O)N[C@H](C(=O)N[C@@H](Cc4c[nH]c5ccccc45)C(N)=O)[C@@H](C)CC)NC(=O)[C@H](Cc4c[nH]c5ccccc45)NC(=O)[C@H](CC(C)C)NC(=O)[C@H](CCCCN)NC(=O)[C@H](CSSC[C@H](NC(=O)[C@H]([C@@H](C)O)NC(=O)[C@H](Cc4c[nH]c5ccccc45)NC1=O)C(=O)N[C@@H](CC(=O)O)C(=O)N[C@@H](CO)C(=O)N[C@@H](CCCCN)C(=O)N[C@@H](CCCNC(=N)N)C(=O)N[C@@H](C)C(=O)N3)NC(=O)[C@H](CCC(=O)O)NC(=O)[C@H](CC(C)C)NC(=O)CNC(=O)[C@H](CCC(=O)O)NC2=O [compound 294]
IC50 (hNav1.7 [1]): 0.024 µM

CC[C@H](C)[C@H](NC(=O)[C@@H](NC(=O)[C@H](CCCCN)NC(=O)[C@H](CCCNC(=N)N)NC(=O)[C@@H]1CSSC[C@@H]2NC(=O)[C@H](C)NC(=O)[C@H](CCCNC(=N)N)NC(=O)[C@H](CCCCN)NC(=O)[C@H](CO)NC(=O)[C@H](CC(=O)O)NC(=O)[C@@H]3CSSC[C@H](NC(=O)[C@H](CCCNC(=N)N)NC(=O)[C@H](CC(C)C)NC(=O)CNC(=O)[C@H](CCC(=O)O)NC(=O)[C@H](CSSC[C@H](NC(=O)[C@@H](N)CCC(=O)O)C(=O)N[C@@H](CCC(N)=O)C(=O)N[C@@H](CCCCN)C(=O)N[C@@H](Cc4c[nH]c5ccccc45)C(=O)N[C@@H](CCSC)C(=O)N[C@@H](Cc4c[nH]c5ccccc45)C(=O)N[C@@H]([C@@H](C)O)C(=O)N3)NC2=O)C(=O)N[C@@H](CCCCN)C(=O)N[C@@H](CC(C)C)C(=O)N[C@@H](Cc2c[nH]c3ccccc23)C(=O)N1)[C@@H](C)CC)C(N)=O [compound 49]
IC50 (hNav1.4 [3]; [5]): 0.008 µM
Nav1.4/Nav1.7 (hNav1.4 [3]; ratio of PX IC50 values): 27
IC50 (hNav1.5; [5]): 6.44 µM
IC50 (hNav1.7 [4]; [5]): 0.0003 µM

CCCC[C@@H]1NC(=O)[C@H](Cc2c[nH]c3ccccc23)NC(=O)[C@H](CCCCN)NC(=O)[C@H](CCC(N)=O)NC(=O)[C@@H](NC(=O)[C@H](Cc2ccc(O)cc2)NC(=O)[C@@H](N)CCN=[N+]=[N-])CSSC[C@@H]2NC(=O)[C@@H]3CSSC[C@@H](C(=O)N[C@@H](CCCNC(=N)N)C(=O)N[C@@H](CCCCN)C(=O)N[C@H](C(=O)N[C@@H](Cc4c[nH]c5ccccc45)C(N)=O)[C@@H](C)CC)NC(=O)[C@H](Cc4c[nH]c5ccccc45)NC(=O)[C@H](CC(C)C)NC(=O)[C@H](CCCCN)NC(=O)[C@H](CSSC[C@H](NC(=O)[C@H]([C@@H](C)O)NC(=O)[C@H](Cc4c[nH]c5ccccc45)NC1=O)C(=O)N[C@@H](CC(=O)O)C(=O)N[C@@H](CO)C(=O)N[C@@H](CCCCN)C(=O)N[C@@H](CCCNC(=N)N)C(=O)N[C@@H](C)C(=O)N3)NC(=O)[C@H](CCC(=O)O)NC(=O)[C@H](CC(C)C)NC(=O)CNC(=O)[C@H](CCC(=O)O)NC2=O [compound 308]
IC50 (hNav1.4 [3]; tonic block): 1.2 µM
IC50 (hNav1.5; tonic block): 3.77 µM
IC50 (hNav1.7 [4]; tonic block): 0.00112 µM

C#CC[C@H](N)C(=O)N[C@@H](Cc1ccc(O)cc1)C(=O)N[C@H]1CSSC[C@@H]2NC(=O)[C@@H]3CSSC[C@@H](C(=O)N[C@@H](CCCNC(=N)N)C(=O)N[C@@H](CCCCN)C(=O)N[C@H](C(=O)N[C@@H](Cc4c[nH]c5ccccc45)C(N)=O)[C@@H](C)CC)NC(=O)[C@H](Cc4c[nH]c5ccccc45)NC(=O)[C@H](CC(C)C)NC(=O)[C@H](CCCCN)NC(=O)[C@H](CSSC[C@H](NC(=O)[C@H]([C@@H](C)O)NC(=O)[C@H](Cc4c[nH]c5ccccc45)NC(=O)[C@H](CCC)NC(=O)[C@H](Cc4c[nH]c5ccccc45)NC(=O)[C@H](CCCCN)NC(=O)[C@H](CCC(N)=O)NC1=O)C(=O)N[C@@H](CC(=O)O)C(=O)N[C@@H](CO)C(=O)N[C@@H](CCCCN)C(=O)N[C@@H](CCCNC(=N)N)C(=O)N[C@@H](C)C(=O)N3)NC(=O)[C@H](CCC(=O)O)NC(=O)[C@H](CC(C)C)NC(=O)CNC(=O)[C@H](CCC(=O)O)NC2=O [compound 300]
IC50 (hNav1.4 [3]; tonic block): 0.967 µM
IC50 (hNav1.5; tonic block): 5.3 µM
IC50 (hNav1.7 [4]; tonic block): 0.000818 µM

C#CC[C@H](N)C(=O)N[C@@H](Cc1ccc(O)cc1)C(=O)N[C@H]1CSSC[C@@H]2NC(=O)[C@@H]3CSSC[C@@H](C(=O)N[C@@H](CCCNC(=N)N)C(=O)N[C@@H](CCCCN)C(=O)N[C@H](C(=O)N[C@@H](Cc4ccccc4)C(N)=O)[C@@H](C)CC)NC(=O)[C@H](Cc4c[nH]c5ccccc45)NC(=O)[C@H](CC(C)C)NC(=O)[C@H](CCCCN)NC(=O)[C@H](CSSC[C@H](NC(=O)[C@H]([C@@H](C)O)NC(=O)[C@H](Cc4c[nH]c5ccccc45)NC(=O)[C@H](CCCC)NC(=O)[C@H](Cc4c[nH]c5ccccc45)NC(=O)[C@H](CCCCN)NC(=O)[C@H](CCC(N)=O)NC1=O)C(=O)N[C@@H](CC(=O)O)C(=O)N[C@@H](CO)C(=O)N[C@@H](CCCCN)C(=O)N[C@@H](CCCNC(=N)N)C(=O)N[C@@H](C)C(=O)N3)NC(=O)[C@H](CCC(=O)O)NC(=O)[C@H](CC(C)C)NC(=O)CNC(=O)[C@H](CCC(=O)O)NC2=O [compound 301]
IC50 (hNav1.7 [1]): 0.035 µM
